What is called IC50 is the point on the concentration scale where inhibition reaches its midpoint.

This assay concerns the target T1, 5-Lipoxygenase from HWBL-1 20,000 xg Supernatant (Rattus norvegicus, UniProt P12527).
T1 construct: 20,000 xg supernatant from 1.5 million homogenized HWBL-1 cells; endogenous in cells
T1 sequence (P12527 1-673): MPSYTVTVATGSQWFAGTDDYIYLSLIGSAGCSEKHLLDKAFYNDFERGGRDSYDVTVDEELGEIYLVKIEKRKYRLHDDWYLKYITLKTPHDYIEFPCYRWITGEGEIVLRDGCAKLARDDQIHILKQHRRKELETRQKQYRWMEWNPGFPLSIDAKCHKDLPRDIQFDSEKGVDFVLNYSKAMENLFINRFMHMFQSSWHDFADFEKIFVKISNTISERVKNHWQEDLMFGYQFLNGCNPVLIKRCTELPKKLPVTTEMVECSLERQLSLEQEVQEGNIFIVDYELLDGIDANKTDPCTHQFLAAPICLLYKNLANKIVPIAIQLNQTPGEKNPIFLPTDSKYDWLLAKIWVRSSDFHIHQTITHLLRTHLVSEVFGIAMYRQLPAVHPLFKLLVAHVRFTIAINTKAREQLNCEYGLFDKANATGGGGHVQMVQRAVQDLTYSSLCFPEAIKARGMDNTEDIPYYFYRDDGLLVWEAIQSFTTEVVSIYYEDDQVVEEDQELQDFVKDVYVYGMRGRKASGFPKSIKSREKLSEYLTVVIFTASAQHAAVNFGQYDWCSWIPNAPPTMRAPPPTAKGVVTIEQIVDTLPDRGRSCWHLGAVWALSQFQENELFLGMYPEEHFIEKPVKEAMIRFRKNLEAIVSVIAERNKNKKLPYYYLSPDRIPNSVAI
Put plainly: 5-lipoxygenase inhibition, 20,000 xg supernatant of homogenized HWBL-1 cells, radiolabeled arachidonic acid. Format: biochemical. The conditions noted are these: read-out: IC50 (in vitro inhibitory potency against 5-lipoxygenase). How it is done: Assays to determine 5-lipoxygenase inhibitory activity of representative compounds of the present invention were performed in […] incubations containing the 20,000 xg supernatant from 1.5 million homogenized HWBL-1 cells and various concentrations of the test compound. Reactions were initiated by addition of radiolabeled arachidonic acid and terminated by acidification and ether extraction. Reaction products were separated from nonconverted substrate by thin layer chromatography and measured by liquid scintillation spectroscopy. All incubations are performed in triplicate. Inhibition of 5-lipoxygenase activity was calculated as the ratio of the amount of product formed in the presence and absence of inhibitor. IC50 values (concentration of compound producing 50% enzyme inhibition) were calculated by linear regression analysis of percentage inhibition versus log inhibitor concentration plots. (Dyer, R. D.; Haviv, F.; Hanel, A. M.; Bornemier, D. A.; Carter, G. W. Fed. Proc., Fed. Am. Soc. Exp. Biol. 1984, 43, 1462A).
In Vitro Inhibitory Potencies of Compounds of this Invention
Against 5-Lipoxygenase from HWBL-1 20,000 xg Supernatant
Turning to `CN(C(=O)CN(O)C(N)=O)c1cccc(Oc2ccccc2)c1` [5, step 2], the IC50 worked out at 6.3 µM.

As for `CNC(=O)N(O)CC(=O)N(C)c1cccc(Oc2ccccc2)c1` [5, step 3], the IC50 was determined as 7.3 µM.

For `NC(=O)N(O)CC(=O)Nc1cccc(Oc2ccccc2)c1` [Example 1, N-Hydroxy-N-[(((3-phenoxyphenyl)amino)carbonyl)methyl]urea], the IC50 turned out to be 0.48 µM.

For `NC(=O)N(O)CC(=O)Nc1cccc(OCc2ccccc2)c1` [Example 3, N-Hydroxy-N-[(((3-phenylmethoxyphenyl)amino)carbonyl)methyl]urea], the IC50 is 0.87 µM.

For `CN(C(=O)CN(O)C(N)=O)c1ccc(Oc2ccccc2)cc1` [Example 4], the IC50 stood at 5.8 µM.

Turning to `CN(C(=O)CN(O)C(N)=O)c1cccc(OCc2ccccc2)c1` [Example 9, N-Hydroxy-N-[((N-methyl-(3-phenylmethoxyphenyl)amino)carbonyl)methyl]urea], the IC50 is 2.8 µM.

`NC(=O)N(O)CC(=O)Nc1ccc(Oc2ccccc2)cc1` [Example 10, N-Hydroxy-N-[(((4-phenoxyphenyl)amino)carbonyl)methyl]urea]: the IC50 was 3.5 µM.

For `CC(/C=C/c1ccc(Br)cc1)NC(=O)CN(O)C(N)=O` (stereo not drawn) [Example 11, N-Hydroxy-N-[(((trans-4-(4-bromophenyl)but-3-en-2-yl)amino)carbonyl)methyl]urea], the IC50 came to 6.6 µM.

For the molecule `CC(/C=C/c1cccc(Oc2ccccc2)c1)NC(=O)CN(O)C(N)=O` (stereo not drawn) [Example 12, N-Hydroxy-N-[(((trans-4-(3-phenoxyphenyl)but-3-en-2-yl)amino)carbonyl)methyl]urea], the 50% inhibitory concentration (IC50) is 0.73 µM.

Turning to `CC(/C=C\c1cccc(Oc2ccccc2)c1)NC(=O)CN(O)C(N)=O` (stereo not shown) [Example 13], the IC50 was 0.83 µM.

Take `CN(CCN(O)C(N)=O)C(=O)Cc1ccc(Br)cc1` [Example 14, N-Hydroxy-N-[2-(((4-bromophenylacetyl)-N-methyl)amino)ethyl]urea]: the IC50 worked out at 1.8 µM.

In the case of `CN(CCN(O)C(N)=O)C(=O)c1cccc(Oc2ccccc2)c1` [Example 15], the half-maximal inhibitory concentration (IC50) was 0.64 µM.

As for `COc1cccc(C(=O)NCCN(O)C(N)=O)c1` [Example 16], the half-inhibitory concentration (IC50) was 1.9 µM.

Consider `COc1ccc(C(=O)NCCN(O)C(N)=O)cc1` [Example 17], for which the IC50 was 5 µM.

Turning to `CCCCOc1ccc(C(=O)NCCN(O)C(N)=O)cc1` [Example 18], the half-maximal inhibitory concentration (IC50) came to 0.25 µM.

For `NC(=O)N(O)CCNC(=O)c1ccc(Cl)cc1` [Example 20, N-Hydroxy-N-[2-((4-chlorobenzoyl)amino)ethyl]urea], the concentration for half-maximal inhibition (IC50) came to 4.5 µM.

Consider `NC(=O)N(O)CCCCNC(=O)c1cccc(Oc2ccccc2)c1` [Example 22, N-Hydroxy-N-[4-((3-phenoxybenzoyl)amino)butyl]urea], for which the IC50 was found to be 0.33 µM.

Turning to `CNC(=O)N(O)CCNC(=O)c1cccc(Oc2ccccc2)c1` [Example 24, N-Hydroxy-N'-methyl-N-[2-((3-phenoxybenzoyl)amino)ethyl]urea], the IC50 is 0.29 µM.

For the molecule `NC(=O)N(O)CCNC(=O)c1cccc(Oc2cccc(C(F)(F)F)c2)c1` [Example 25, N-Hydroxy-N-[2-((3-(3-trifluoromethylphenoxy)benzoyl)amino)ethyl]urea], the IC50 worked out at 0.43 µM.

For `CNC(=O)N(O)CCNC(=O)c1cccc(Oc2ccc(Cl)cc2)c1` [Example 27, N-Hydroxy-N'-methyl-N-[2-((3-(4-chlorophenoxy)benzoyl)amino)ethyl]urea], the IC50 was found to be 0.76 µM.

Regarding `COc1ccc(Oc2cccc(C(=O)NCCN(O)C(N)=O)c2)cc1` [Example 28, N-Hydroxy-N-[2-((3-(4-methoxyphenoxy)benzoyl)amino)ethyl]urea], the concentration for half-maximal inhibition (IC50) worked out at 0.23 µM.

With `NC(=O)N(O)CCNC(=O)c1cccc(Oc2ccc(Cl)c(Cl)c2)c1` [Example 29, N-Hydroxy-N-[2-((3-(3,4-dichlorophenoxy)benzoyl)amino)ethyl]urea], the half-maximal inhibitory concentration (IC50) is 0.3 µM.

With `NC(=O)N(O)CCNC(=O)c1cccc(Oc2cc(Cl)cc(Cl)c2)c1` [Example 30, N-Hydroxy-N-[2-((3-(3.5-dichlorophenoxy)benzoyl)amino)ethyl]urea], the IC50 stood at 0.34 µM.

For the molecule `CC(C)(C)c1ccc(Oc2cccc(C(=O)NCCN(O)C(N)=O)c2)cc1` [Example 31, N-Hydroxy-N-[2-((3-(4-tert-butylphenoxy)benzoyl)amino)ethyl]urea], the IC50 was 0.47 µM.

As for `CC(CNC(=O)c1cccc(Oc2ccccc2)c1)N(O)C(N)=O` (stereo not shown) [Example 33, N-Hydroxy-N-[3-((3-phenoxybenzoyl)amino)prop-2-yl]urea], the half-inhibitory concentration (IC50) came to 0.61 µM.

As to `NC(=O)N(O)CCNC(=O)c1ccc(-c2ccccc2)cc1` [Example 34, N-Hydroxy-N-[2-((4-phenylbenzoyl)amino)ethyl]urea], the half-inhibitory concentration (IC50) amounted to 0.38 µM.

In the case of `CN(CCN(O)C(N)=O)Cc1cccc(Oc2ccc(Cl)c(Cl)c2)c1` [Example 39, N-Hydroxy-N-[2-(N-methyl((3-(3,4-dichlorophenoxy)phenyl)methyl)amino)ethyl]urea], the half-inhibitory concentration (IC50) turned out to be 0.31 µM.

For `COc1ccc(CN(C)CCN(O)C(N)=O)cc1OCc1ccccc1` [Example 41, N-Hydroxy-N-[2-(((((4-methoxy-3-phenylmethoxy)phenyl)methyl)-N-methyl)amino)ethyl]urea], the IC50 was found to be 1.6 µM.

For `CC(C)Oc1cccc(C(=O)NCCN(O)C(N)=O)c1` [Example 46, N-Hydroxy-N-[2-((3-(1-methylethoxy)benzoyl)amino)ethyl]urea], the concentration for half-maximal inhibition (IC50) came to 0.29 µM.

With `C=C(C)COc1cccc(C(=O)NCCN(O)C(N)=O)c1` [Example 47, N-Hydroxy-N-[2-((3-(2-methyl-prop-2-enyloxy)benzoyl)amino)ethyl]urea], the concentration for half-maximal inhibition (IC50) stood at 0.23 µM.

Consider `NC(=O)N(O)CCNS(=O)(=O)c1ccc2ccccc2c1` [Example 48, N-Hydroxy-N-[2-((naphth-2-ylsulfonyl)amino)ethyl]urea], for which the IC50 was determined as 1.1 µM.

With `NC(=O)N(O)CCNC(=O)c1cccn1Cc1ccc(Cl)cc1` [Example 49, N-Hydroxy-N-[2-(((1-(4-chlorophenylmethyl)pyrrol-2-yl)carbonyl)amino)ethyl]urea], the IC50 was found to be 0.29 µM.

For `CC(CN(O)C(N)=O)N(C)C(=O)c1cccc(Oc2ccc(Cl)cc2)c1` (stereo not shown) [Example 50, N-Hydroxy-N-[2-(((3-(4-chlorophenoxy)benzoyl)-N-methyl)amino)propyl]urea], the half-maximal inhibitory concentration (IC50) was determined as 5.8 µM.

In the case of `CCCCCCOc1ccc(C(=O)NCCN(O)C(N)=O)cc1` [Example 57, N-Hydroxy-N-[2-((4-n-hexyloxybenzoyl)amino)ethyl]urea], the IC50 worked out at 0.29 µM.

`NC(=O)N(O)CCNC(=O)c1cscc1Sc1ccc(Cl)cc1` [Example 59, N-Hydroxy-N-[2-((4-(4-chlorothiophenoxy)thien-3-oyl)amino)ethyl]urea]: the IC50 is 0.1 µM.

For `NC(=O)N(O)CCNC(=O)c1cccc(C(=O)c2ccccc2)c1` [Example 65, N-Hydroxy-N-[2-((3-benzoylbenzoyl)amino)ethyl]urea], the IC50 is 0.22 µM.

`CC(Oc1ccc(C(=O)NCCN(O)C(N)=O)cc1)c1ccccc1` (stereo not shown) [Example 66, N-Hydroxy-N-[2-((4-(1-phenylethyloxy)benzoyl)amino)ethyl]urea]: the IC50 stood at 0.25 µM.

Take `CC(Oc1cccc(C(=O)NCCN(O)C(N)=O)c1)c1ccccc1` (stereo not shown) [Example 67, N-Hydroxy-N-[2-((3-(1-phenylethyloxy)benzoyl)amino)ethyl]urea]: the concentration for half-maximal inhibition (IC50) was determined as 0.35 µM.

For `CC(C(=O)NCCN(O)C(N)=O)c1cccc(C(C)c2ccccc2)c1` (stereo not shown) [Example 69, N-Hydroxy-N-[2-(((3-(1-phenylethyl)phenyl)propion-2-yl)amino)ethyl]urea], the concentration for half-maximal inhibition (IC50) is 0.39 µM.

`NC(=O)N(O)CCNC(=O)COc1ccc(Oc2ccccc2)cc1` [Example 72, N-Hydroxy-N-[2-((4-phenoxyphenoxyacetyl)amino)ethyl] urea]: the 50% inhibitory concentration (IC50) was found to be 0.11 µM.

With `NC(=O)N(O)CCNC(=O)c1ccc2ccccc2n1` [Example 75, N-Hydroxy-N-[2-((quinolin-2-oyl)amino)ethyl]urea], the IC50 turned out to be 0.1 µM.

For `COc1ccc2cc(/C=C(\C)C(=O)NCCN(O)C(N)=O)ccc2c1` [Example 76, N-Hydroxy-N-[2-(((3-(6-methoxynaphth-2-yl)prop-2-en-2-yl)carbonyl)amino)ethyl]urea], the IC50 came out at 1 µM.

As to `NC(=O)N(O)CCNC(=O)CCc1ccccc1` [Example 77, N-Hydroxy-N-[2-((3-phenylpropionyl)amino)ethyl]urea], the IC50 came to 0.39 µM.
